This passage reports EC50 results from patent US20220089575A1, “FARNESOID X RECEPTOR AGONISTS AND USES THEREOF” (Metacrine, Inc., priority 2017, published 2022).

The assay concerns the target T1, hFXR (Homo sapiens, UniProt Q96RI1).
T1 construct: expressed in transfected cells; host or cells: CV-1 cells
T1 sequence (Q96RI1 1-486): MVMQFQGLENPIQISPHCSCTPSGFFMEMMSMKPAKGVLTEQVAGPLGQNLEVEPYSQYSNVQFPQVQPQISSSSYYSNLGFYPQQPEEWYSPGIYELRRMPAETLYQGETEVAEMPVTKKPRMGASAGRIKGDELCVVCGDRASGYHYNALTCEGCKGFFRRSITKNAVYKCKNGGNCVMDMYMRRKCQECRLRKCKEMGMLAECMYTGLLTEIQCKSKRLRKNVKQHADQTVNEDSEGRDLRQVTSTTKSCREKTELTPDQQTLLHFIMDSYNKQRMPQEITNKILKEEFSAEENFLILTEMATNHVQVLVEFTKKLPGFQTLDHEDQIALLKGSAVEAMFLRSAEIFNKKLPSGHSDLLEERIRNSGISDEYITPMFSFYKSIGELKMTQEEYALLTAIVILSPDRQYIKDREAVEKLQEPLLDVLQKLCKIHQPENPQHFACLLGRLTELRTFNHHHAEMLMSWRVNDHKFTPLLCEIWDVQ
T1 sequence (P19793 1-462 partner): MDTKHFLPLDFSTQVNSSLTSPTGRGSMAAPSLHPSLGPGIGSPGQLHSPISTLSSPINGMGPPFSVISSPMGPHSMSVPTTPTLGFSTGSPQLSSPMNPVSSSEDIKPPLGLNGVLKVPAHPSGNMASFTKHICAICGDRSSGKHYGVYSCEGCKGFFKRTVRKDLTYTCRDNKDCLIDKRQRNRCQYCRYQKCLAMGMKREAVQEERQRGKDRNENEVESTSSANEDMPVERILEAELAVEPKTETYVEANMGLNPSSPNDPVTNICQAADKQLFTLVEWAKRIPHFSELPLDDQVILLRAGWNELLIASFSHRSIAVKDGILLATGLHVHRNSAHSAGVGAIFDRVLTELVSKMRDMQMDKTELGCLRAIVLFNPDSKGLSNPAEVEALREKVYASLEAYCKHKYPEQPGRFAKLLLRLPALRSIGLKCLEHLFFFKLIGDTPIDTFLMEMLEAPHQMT
Briefly: In Vitro FXR Assay (TK): TK-ECRE-luc reporter in transfected CV-1 cells. Format: cell-based. The following applies: 18 hrs, luminescence, maximum efficacy of <25% of the Fexarmine control classified as '+'. The procedure, abridged: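 CV-1 cells in DMEM with 10% charcoal-stripped FBS were co-transfected with hFXR, hRXR, TK-ECRE-luc reporter and pCMX-YFP plasmids. After 18 h, compounds serially diluted in DMSO were added for a further 18 h, then cells were lysed and luminescence read.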

The term EC50 denotes the concentration giving half of the maximal effect. Higher therefore signals lower potency in that assay.

In the case of `CCC1CN(C(=O)O[C@H]2CC[C@H](C(=O)N(C[C@H]3CC[C@H](c4ccc(OC)c(C)n4)CC3)c3cc(-c4coc(C(C)C)n4)ccn3)CC2)C1` [Compound 7.100, trans-4-((4-(2-Isopropyloxazol-4-yl)pyridine-2-yl)((trans-4-(5-methoxy-6-methylpyridin-2-yl)cyclohexyl)methyl)carbamoyl)cyclohexyl 3-ethylazetidine-1-carboxylate], the concentration for a half-maximal effect (EC50) is ≤ 0.25 µM.

Take `COc1ccc([C@H]2CC[C@H](CN(c3cccc(-c4cnn(C5CC5)c4)c3)C(=O)[C@H]3CC[C@H](OC(=O)N4CC(O)C4)CC3)CC2)nc1C` [Compound 4.26, trans-4-((3-(1-Cyclopropyl-1H-pyrazol-4-yl)phenyl)((trans-4-(5-methoxy-6-methylpyridin-2-yl)cyclohexyl)methyl)carbamoyl)cyclohexyl 3-hydroxyazetidine-1-carboxylate]: the concentration for a half-maximal effect (EC50) was ≤ 0.25 µM.

Turning to `COc1ccc([C@H]2CC[C@H](CN(c3cccc(-c4cnn(C(C)C)c4)c3)C(=O)[C@H]3CC[C@H](CC(=O)O)CC3)CC2)nc1C` [Compound 20.13, 2-(trans-4-((3-(1-Isopropyl-1H-pyrazol-4-yl)phenyl)((trans-4-(5-methoxy-6-methylpyridin-2-yl)cyclohexyl)methyl)carbamoyl)cyclohexyl)acetic acid], the EC50 is ≤ 0.25 µM.

As to `COc1ccc([C@H]2CC[C@H](CN(c3cccc(-c4cnn(C5CC5)c4)c3)C(=O)[C@H]3CC[C@H](c4nnn[nH]4)CC3)CC2)cc1C` [Compound 33.01, trans-N-(3-(1-Cyclopropyl-1H-pyrazol-4-yl)phenyl)-N-((trans-4-(4-methoxy-3-methylphenyl)cyclohexyl)methyl)-4-(2H-tetrazol-5-yl) cyclohexanecarboxamide], the EC50 was ≤ 0.25 µM.

As for `COc1ccc([C@H]2CC[C@H](CN(c3cccc(-c4cnc(C5CC5)s4)c3)C(=O)[C@H]3CC[C@H](OC(=O)N4CC(O)C4)CC3)CC2)nc1C#N` [Compound 7.09, trans-4-(((trans-4-(6-Cyano-5-methoxypyridin-2-yl)cyclohexyl)methyl)(3-(2-cyclopropylthiazol-5-yl)phenyl)carbamoyl)cyclohexyl 3-hydroxyazetidine-1-carboxylate], the EC50 is ≤ 0.25 µM.

Turning to `COc1ccc([C@H]2CC[C@H](CN(c3cccc(-c4cnc(C(C)C)s4)c3)C(=O)[C@H]3CC[C@H](OC(=O)NCCCO)CC3)CC2)nc1C` [Compound 6.05], the EC50 is ≤ 0.25 µM.

With `COc1ccc([C@H]2CC[C@H](CN(c3cc(-c4cnn(C(C)C)c4)ccn3)C(=O)[C@H]3CC[C@H](OC(=O)N4CC(OC(C)C)C4)CC3)CC2)cc1C#N` [Compound 7.49, trans-4-(((trans-4-(3-Cyano-4-methoxyphenyl)cyclohexyl)methyl)(4-(1-isopropyl-1H-pyrazol-4-yl)pyridin-2-yl)carbamoyl)cyclohexyl 3-isopropoxyazetidine-1-carboxylate], the EC50 is ≤ 0.25 µM.

Take `COC(=O)N[C@H]1CC[C@H](C(=O)N(C[C@H]2CC[C@H](c3ccc(OC)c(C)c3)CC2)c2cccc(-c3cnn(C4CC4)c3)c2)CC1` [Compound 26, Methyl (trans-4-((3-(1-cyclopropyl-1H-pyrazol-4-yl)phenyl)((trans-4-(4-methoxy-3-methylphenyl)cyclohexyl)methyl)carbamoyl)cyclohexyl)carbamate]: the half-maximal effective concentration (EC50) was ≤ 0.25 µM.

`CCNC(=O)O[C@H]1CC[C@H](C(=O)N(C[C@H]2CC[C@H](c3ccc(OC)c(C#N)n3)CC2)c2cc(-c3cnn(C(C)C)c3)ccn2)CC1` [Compound 5.29, trans-4-(((trans-4-(6-Cyano-5-methoxypyridin-2-yl)cyclohexyl)methyl)(4-(1-isopropyl-1H-pyrazol-4-yl)pyridin-2-yl)carbamoyl)cyclohexyl ethylcarbamate]: the EC50 is ≤ 0.25 µM.

As to `COc1ccc([C@H]2CC[C@H](CN(c3cc(-c4cnc(C5CC5)s4)ccn3)C(=O)[C@H]3CC[C@H](C(=O)O)CC3)CC2)cc1C` [Compound 17.09, trans-4-((4-(2-Cyclopropylthiazol-5-yl)pyridin-2-yl)((trans-4-(4-methoxy-3-methylphenyl)cyclohexyl)methyl)carbamoyl)cyclohexanecarboxylic acid], the EC50 was ≤ 0.25 µM.

With `COc1ccc([C@H]2CC[C@H](CN(c3cc(-c4cnn(C(C)C)c4)ccn3)C(=O)[C@H]3CC[C@H](CC(=O)O)CC3)CC2)cc1C` [Compound 20.15, 2-(trans-4-((4-(1-Isopropyl-1H-pyrazol-4-yl)pyridin-2-yl)((trans-4-(4-methoxy-3-methylphenyl)cyclohexyl)methyl)carbamoyl)cyclohexyl)acetic acid], the concentration for a half-maximal effect (EC50) was ≤ 0.25 µM.

Turning to `COc1ccc([C@H]2CC[C@H](CN(c3cc(-c4coc(C5CC5)n4)ccn3)C(=O)[C@H]3CC[C@H](OC(=O)N(C)CC(C)O)CC3)CC2)nc1C` (stereo partly drawn) [Compound 6.67, trans-4-((4-(2-Cyclopropyloxazol-4-yl)pyridin-2-yl)((trans-4-(5-methoxy-6-methylpyridin-2-yl)cyclohexyl)methyl)carbamoyl)cyclohexyl(2-hydroxypropyl)(methyl)carbamate], the 50% effective concentration (EC50) was ≤ 0.25 µM.

With `COc1ccc([C@H]2CC[C@H](CN(c3cc(-c4coc(C5CC5)n4)ccn3)C(=O)[C@H]3CC[C@H](OC(=O)N4CCOC(C)C4)CC3)CC2)nc1C` (stereo partly drawn) [Compound 7.107, trans-4-((4-(2-Cyclopropyloxazol-4-yl)pyridin-2-yl)((trans-4-(5-methoxy-6-methylpyridin-2-yl)cyclohexyl)methyl)carbamoyl)cyclohexyl 2-methylmorpholine-4-carboxylate], the EC50 was ≤ 0.25 µM.

The compound `COc1ccc([C@H]2CC[C@H](CN(c3cccc(-c4cnc(C5CC5)s4)c3)C(=O)[C@H]3CC[C@H](NC(=O)Cn4ccnc4)CC3)CC2)cc1C` [Compound 27.03, trans-4-(2-(1H-Imidazol-1-yl)acetamido)-N-(3-(2-cyclopropylthiazol-5-yl)phenyl)-N-((trans-4-(4-methoxy-3-methylphenyl)cyclohexyl)methyl)cyclohexanecarboxamide] showed an EC50 of 0.25 to 1 µM.

On to `CN(C)c1ccc([C@H]2CC[C@H](CN(c3cccc(-c4cnc(C5CC5)s4)c3)C(=O)[C@H]3CC[C@H](OC(=O)NCCO)CC3)CC2)cn1` [Compound 6.01, 4-((3-(2-Cyclopropylthiazol-5-yl)phenyl) ((trans-4-(6-(dimethylamino)pyridin-3-yl)cyclohexyl)methyl)carbamoyl) cyclohexyl (2-hydroxyethyl)trans-carbamate], for which the 50% effective concentration (EC50) is ≤ 0.25 µM.

`CNC(=O)O[C@H]1CC[C@H](C(=O)N(C[C@H]2CC[C@H](c3ccc(OC)c(C#N)n3)CC2)c2cccc(-c3cnn(C4CC4)c3)c2)CC1` [Compound 5.23, trans-4-(((trans-4-(6-Cyano-5-methoxypyridin-2-yl)cyclohexyl)methyl)(3-(1-cyclopropyl-1H-pyrazol-4-yl)phenyl)carbamoyl)cyclohexyl methylcarbamate]: the 50% effective concentration (EC50) is ≤ 0.25 µM.

As to `CNC(=O)O[C@H]1CC[C@H](C(=O)N(C[C@H]2CC[C@H](c3ccc(OC)c(C#N)n3)CC2)c2cccc(-c3coc(C(C)C)n3)c2)CC1` [Compound 5.46, trans-4-(((trans-4-(6-Cyano-5-methoxypyridin-2-yl)cyclohexyl)methyl)(3-(2-isopropyloxazol-4-yl)phenyl)carbamoyl)cyclohexyl methylcarbamate], the concentration giving a half-maximal response (EC50) was ≤ 0.25 µM.

Turning to `COc1ccc([C@H]2CC[C@H](CN(c3cccc(-c4cnc(C5CC5)s4)c3)C(=O)[C@H]3CC[C@H](N(C)C(C)=O)CC3)CC2)cc1C` [Compound 25.10, trans-N-(3-(2-Cyclopropylthiazol-5-yl)phenyl)-N-((trans-4-(4-methoxy-3-methylphenyl)cyclohexyl)methyl)-4-(N-methylacetamido) cyclohexanecarboxamide], the EC50 was ≤ 0.25 µM.

Turning to `COc1ccc([C@H]2CC[C@H](CN(c3cccc(-c4cnn(C5CC5)c4)c3)C(=O)[C@H]3CC[C@H](CC(=O)O)CC3)CC2)cc1C` [Compound 20.09, 2-(trans-4-((3-(1-Cyclopropyl-1H-pyrazol-4-yl)phenyl)((trans-4-(4-methoxy-3-methylphenyl)cyclohexyl)methyl)carbamoyl)cyclohexyl)acetic acid], the half-maximal effective concentration (EC50) is ≤ 0.25 µM.

Regarding `CNC(=O)O[C@H]1CC[C@H](C(=O)N(C[C@H]2CC[C@H](c3ccc(OC)c(C)c3)CC2)c2cccc(-c3coc(C(C)C)n3)c2)CC1` [Compound 5.30, trans-4-((3-(2-Isopropyloxazol-4-yl)phenyl)((trans-4-(4-methoxy-3-methylphenyl)cyclohexyl)methyl)carbamoyl)cyclohexyl methylcarbamate], the 50% effective concentration (EC50) is ≤ 0.25 µM.
